For the assay, the system named is CHO-K1 (Chinese hamster ovary cell line). Put plainly: Cytotoxicity (MTT), CHO-K1 cell line. In kind it is cell-based. The note with it: Cricetulus griseus, CHO-K1, 120 h, 5 d incubation. As to the method: CHO-K1 cells were obtained from the DSMZ and were cultured under conditions recommended by the depositor. Cells were seeded at 6×10^3 cells/well of 96-well plates in 180 μl complete medium and treated with compounds in serial dilution after 2 h of equilibration. Each sample was tested in duplicate as well as the internal DMSO control. After 5 d incubation, 20 μl of 5 mg/ml MTT (thiazolyl blue tetrazolium bromide) in PBS was added per well and it was further incubated for 2 h at 37° C. The medium was then discarded and cells were washed with 100 μl PBS before adding 100 μl 2-propanol/10 N HCl (250:1) in order to dissolve formazan granules. The absorbance at 570 nm was measured using a microplate reader (Tecan Infinite M200Pro), and cell viability was expressed as percentage relative to the respective […] control.

In the case of `COC(C(N)=O)C(NC(=O)c1ccc(NC(=O)c2ccc([N+](=O)[O-])cc2)cc1)C(=O)Nc1ccc(C(=O)Nc2ccc(C(=O)Nc3ccc(C(=O)O)cc3OC(C)C)c(O)c2OC(C)C)cc1` (stereo not shown) [Cys 919-2], the concentration for half-maximal inhibition (IC50) – broadly, the concentration needed to halve the response being measured – was ~50 µM.
